# Laboratory results published in patent US20230365571A1, “COMPOUNDS AND COMPOSITIONS AS Sppl2a INHIBITORS” (Novartis AG, priority 2020, published 2023).
# Assays:
# Type in all cases: cell-based
# [1] = biological target: T1, Sppl2a CD74 (Mus musculus, UniProt Q9JJF9); assay: CD74/p8 mouse whole blood assay, flow cytometry format; details: Balb/c mouse whole blood, 5 h, CD74 signal on gated live B cells
# T1 construct: Mouse whole blood Balb/c mice (sodium citrate) was ordered by Bioreclamation LLC; tissue Bioreclamation LLC
# T1 sequence (Q9JJF9 26-523): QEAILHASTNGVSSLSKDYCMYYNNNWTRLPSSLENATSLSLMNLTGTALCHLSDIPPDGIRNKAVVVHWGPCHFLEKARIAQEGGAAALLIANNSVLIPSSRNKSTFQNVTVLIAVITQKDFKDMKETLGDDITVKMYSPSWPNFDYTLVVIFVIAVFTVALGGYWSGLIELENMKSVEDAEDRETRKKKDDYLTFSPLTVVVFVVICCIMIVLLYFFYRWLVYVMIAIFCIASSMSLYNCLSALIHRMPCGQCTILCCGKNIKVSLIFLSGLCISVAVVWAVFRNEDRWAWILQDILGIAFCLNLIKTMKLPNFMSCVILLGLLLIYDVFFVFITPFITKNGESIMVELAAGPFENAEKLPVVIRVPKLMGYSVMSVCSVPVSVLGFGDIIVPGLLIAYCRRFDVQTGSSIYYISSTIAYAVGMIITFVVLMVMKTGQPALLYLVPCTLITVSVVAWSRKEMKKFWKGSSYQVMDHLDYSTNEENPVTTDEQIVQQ
# Method in brief: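 Balb/c mouse whole blood (citrate) incubated 5 h at 37 °C with compounds, 11-point dilution from 30 μM top. After RBC lysis, live B220+ B cells stained intracellularly for CD74 (FITC) and analysed by flow cytometry. IC50 fitted from CD74 median fluorescence intensity.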
# [2] = biological target: T2, human SPPL2a (Homo sapiens, UniProt Q8TCT8); assay: Sppl2a TL (translocation) imaging assay in U-2 OS cells; parameters: expressed in transfected cells; details: U-2 OS cells expressing human SPPL2a and EGFP-TNFα(aa1-76) NTF substrate; 24 h
# T2 sequence (Q8TCT8 26-520): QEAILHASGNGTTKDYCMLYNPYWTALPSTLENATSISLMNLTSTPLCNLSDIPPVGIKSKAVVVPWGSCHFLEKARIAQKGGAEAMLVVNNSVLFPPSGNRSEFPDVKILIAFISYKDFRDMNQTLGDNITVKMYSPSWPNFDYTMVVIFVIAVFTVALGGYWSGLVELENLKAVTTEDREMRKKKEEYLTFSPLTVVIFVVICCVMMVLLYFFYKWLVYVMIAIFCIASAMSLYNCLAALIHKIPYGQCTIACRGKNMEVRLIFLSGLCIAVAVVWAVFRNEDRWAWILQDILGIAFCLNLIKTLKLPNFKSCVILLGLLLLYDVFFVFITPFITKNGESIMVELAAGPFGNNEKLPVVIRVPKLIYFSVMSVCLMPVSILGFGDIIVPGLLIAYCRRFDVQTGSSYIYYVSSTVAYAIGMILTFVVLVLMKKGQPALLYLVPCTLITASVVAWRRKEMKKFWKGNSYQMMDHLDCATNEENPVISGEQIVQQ
# Method in brief: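 U-2 OS cells stably expressing human SPPL2a plus doxycycline-induced EGFP-TNFα(aa1-76) NTF, treated 24 h at 37 °C with inhibitor (100 μM–1 nM, 11 points, 0.9% DMSO, 5 μg/mL doxycycline). Imaging of nuclear-minus-cytoplasmic EGFP intensity; % inhibition versus 0.5 μM LY-411,575 and DMSO, IC50 by nonlinear regression; CC50 from cell count.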
# [3] = biological target: T2, human SPPL2a; assay: Sppl2a RGA (reporter gene assay) in HEK293 cells; parameters: expressed in transfected cells; host or cells: HEK293 (transient); details: NT-TNF-VP16-Gal4 substrate, Gal4-luciferase reporter, 24 h
# Method in brief: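 Cleavage of a membrane-bound TNF N-terminal–VP16-Gal4 substrate drives Gal4-luciferase expression in transiently transfected HEK293 cells also expressing human SPPL2a. Compounds incubated 24 h, 37 °C, 5% CO2; luminescence read, normalized and plotted against concentration for IC50.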
Structure (SMILES),IC50 [1] [nM],IC50 [2] [nM],IC50 [3] [nM]
"CC(C)NC(=O)c1nc(Cl)c(NC(=O)C[C@@H](C)C(=O)N[C@@H]2C(=O)N3CCCN3Cc3ccccc32)s1 [Example 64, (R)-N^4-(4-Chloro-2-(isopropylcarba-moyl)thiazol-5-yl)-2-methyl-N^1-((S)-11-oxo-2,3,10,11-tetrahydro-1H,5H-benzo[d]pyrazolo [1,2-a][1,2]diazepin-10-yl)succinamide]",230,1,3
"C[C@H](CC(=O)Nc1cc(C(=O)NCC(F)F)nn1C)C(=O)N[C@@H]1C(=O)N2CCCN2Cc2ccccc21 [Example 65, (R)-N^4-(3-((2,2-difluoroethyl)car-bamoyl)-1-methyl-1H-pyrazol-5-yl)-2-methyl-N^1-((S)-11-oxo-2,3,10,11-tetrahydro-1H,5H-benzo[d]pyrazolo [1,2-a][1,2]diazepin-10-yl)succinamide]",519,1,14
"Cc1nc(C(=O)NC(C)C)sc1NC(=O)C[C@@H](C)C(=O)N[C@@H]1C(=O)N2CCCN2Cc2ccccc21 [Example 66, (R)-N^4-(2-(Isopropylcarba-moyl)-4-methylthiazol-5-yl)-2-methyl-N^1-((S)-11-oxo-2,3,10,11-tetrahydro-1H,5H-benzo[d]pyrazolo [1,2-a][1,2]diazepin-10-yl)succinamide]",136,2,2
"C[C@H](CC(=O)Nc1cc(C(=O)NCC(F)(F)F)nn1C)C(=O)N[C@@H]1C(=O)N2CCCN2Cc2ccccc21 [Example 68, (R)-2-methyl-N^4-(1-methyl-3-((2,2,2-trifluoroethyl)car-bamoyl)-1H-pyrazol-5-yl)-N^1-((S)-11-oxo-2,3,10,11-tetrahydro-1H,5H-benzo[d]pyrazolo [1,2-a][1,2]diazepin-10-yl)succinamide]",329,3,34
"C[C@H](CC(=O)Nc1cc(NC(=O)c2ccccc2F)nn1C)C(=O)N[C@@H]1C(=O)N2CCCN2Cc2ccccc21 [Example 69, (R)-N^4-(3-(2-Fluorobenzamido)-1-methyl-1H-pyrazol-5-yl)-2-methyl-N^1-((S)-11-oxo-2,3,10,11-tetrahydro-1H,5H-benzo[d]pyrazolo [1,2-a][1,2]diazepin-10-yl)succinamide]",1240,3,9
"C[C@H](CC(=O)Nc1cc(NC(=O)c2cccc(F)c2F)nn1C)C(=O)N[C@@H]1C(=O)N2CCCN2Cc2ccccc21 [Example 76, (R)-N^4-(3-(2,3-Difluorobenzamido)-1-methyl-1 H-pyrazol-5-yl)-2-methyl-N^1-((S)-11-oxo-2,3,10,11-tetrahydro-1H,5H-benzo[d]pyrazolo [1,2-a][1,2]diazepin-10-yl)succinamide]",1690,5,7
"CC(C)NC(=O)c1cc(NC(=O)C[C@H](C(=O)N[C@@H]2C(=O)N3CCCN3Cc3c(F)cccc32)C2CC2)n(C)n1 [Example 77, (S)-2-Cyclopropyl-N^1-((S)-6-fluoro-11-oxo-2,3,10,11-tetrahydro-1H,5H-benzo[d]pyrazolo [1,2-a][1,2]diazepin-10-yl)-N^4-(3-(isopropylcarba-moyl)-1-methyl-1H-pyrazol-5-yl)succinamide]",250,6,5
"Cc1cc(-c2cc(NC(=O)C[C@@H](C)C(=O)N[C@@H]3C(=O)N4CCCN4Cc4ccccc43)n(C)n2)no1 [Example 80, (R)-2-Methyl-N^4-(1-methyl-3-(5-methylisoxazol-3-yl)-1H-pyrazol-5-yl)-N^1-((S)-11-oxo-2,3,10,11-tetrahydro-1H,5H-benzo[d]pyrazolo [1,2-a][1,2]diazepin-10-yl)succinamide]",910,7,8
"CC(C)C(=O)Nc1cc(NC(=O)C[C@H](C(=O)N[C@@H]2C(=O)N3CC4(CC4)CN3C(=O)c3ccccc32)C2CCC2)n(C)n1 [Example 82, (S)-2-Cyclobutyl-N^1-((S)-5,11-dioxo-10,11-dihydro-1H,3H,5H-spiro[benzo[d]pyrazolo[1,2-a][1,2]diazepine-2,1′-cyclopropan]-10-yl)-N^4-(3-isobutyramido-1-methyl-1H-pyrazol-5-yl)succinamide]",1870,9,36
"CCn1nc(-c2ccco2)cc1NC(=O)C[C@@H](C)C(=O)N[C@@H]1C(=O)N2CCCN2Cc2ccccc21 [Example 85, (R)-N^4-(1-Ethyl-3-(furan-2-yl)-1H-pyrazol-5-yl)-2-methyl-N^1-((S)-11-oxo-2,3,10,11-tetrahydro-1H,5H-benzo[d]pyrazolo [1,2-a][1,2]diazepin-10-yl)succinamide]",203,10,22
"C[C@H](CC(=O)Nc1cc(NC(=O)C(C)(C)C)nn1C)C(=O)N[C@@H]1C(=O)N2CCCN2Cc2ccccc21 [Example 89, (R)-2-Methyl-N^4-(1-methyl-3-pivalamido-1H-pyrazol-5-yl)-N^1-((S)-11-oxo-2,3,10,11-tetrahydro-1H,5H-benzo[d]pyrazolo [1,2-a][1,2]diazepin-10-yl)succinamide]",649,11,60
"Cc1cc(-c2cc(NC(=O)C[C@@H](C)C(=O)N[C@@H]3C(=O)N4CCCN4Cc4ccccc43)n(C)n2)on1 [Example 90, (R)-2-Methyl-N^4. (1-methyl-3-(3-methylisoxazol-5-yl)-1H-pyrazol-5-yl)-N^1-((S)-11-oxo-2,3,10,11-tetrahydro-1H,5H-benzo[d]pyrazolo [1,2-a][1,2]diazepin-10-yl)succinamide]",635,11,11
"CC(C)NC(=O)c1ncc(NC(=O)C[C@@H](C)C(=O)N[C@@H]2C(=O)N3CCCN3Cc3ccccc32)s1 [Example 91, (R)-N^4-(2-(Isopropylcarba-moyl)thiazol-5-yl)-2-methyl-N^1-((S)-11-oxo-2,3,10,11-tetrahydro-1H,5H-benzo[d]pyrazolo [1,2-a][1,2]diazepin-10-yl)succinamide]",500,11,24
"CC(C)C(=O)Nc1cc(NC(=O)C[C@H](C(=O)N[C@@H]2C(=O)N3CC4(CC4)CN3C(=O)c3ccccc32)C2CC2)n(C)n1 [Example 93, (S)-2-Cyclopropyl-N^1-((S)-5,11-dioxo-10,11-dihydro-1H,3H,5H-spiro[benzo[d]pyrazolo[1,2-a][1,2]diazepine-2,1′-cyclopropan]-10-yl)-N^4-(3-isobutyramido-1-methyl-1H-pyrazol-5-yl)succinamide]",1130,12,168
"C[C@H](CC(=O)Nc1cc(-c2ccccn2)nn1C)C(=O)N[C@@H]1C(=O)N2CCCN2Cc2ccccc21 [Example 94, (R)-2-Methyl-N^4-(1-methyl-3-(pyridin-2-yl)-1H-pyrazol-5-yl)-N^1-((S)-11-oxo-2,3,10,11-tetrahydro-1H,5H-benzo[d]pyrazolo [1,2-a][1,2]diazepin-10-yl)succinamide]",2540,12,34
"COCCn1cc(-c2nc(Cl)c(NC(=O)C[C@@H](C)C(=O)N[C@@H]3C(=O)N4CCCN4Cc4ccccc43)s2)cn1 [Example 99, (R)-N^4-(4-Chloro-2-(1-(2-methoxyethyl)-1H-pyrazol-4-yl)thiazol-5-yl)-2-methyl-N^1-((S)-11-oxo-2,3,10,11-tetrahydro-1H,5H-benzo[d]pyrazolo [1,2-a][1,2]diazepin-10-yl)succinamide]",892,14,50
